One data set relates to breast cancer cells. The data set is described as follows: Cell viability assay, breast cancer cell panel or cell line not stated. The class given is cell-based, human. The conditions noted are these: incl. MDA-468, BT20, MDa-MB231, SKBR3, MDA-MB435, T47D, ZR75.1. From the text:
(§1) (aka proliferation assay, in this case MTS assay was used. MTS, MTT, XTT all similar assays often used as cell viability/toxicity assay). Cell viability in response to compounds such as 5NT and KD06 was studied with a tetrazolium/formazan based assay (MTS, Celltiter 96 aqueous one solution cell proliferation assay, Promega, WI) [Akar U, Chaves-Reyez A, Barria g Tari A, Sanguino A, Kondo Y, Kondo S, Arun B, Lopez-Berestein G, Ozpolat B: Silencing of Bcl-2 expression by small interfering RNA induces autophagic cell death in MCF-7 breast cancer cells. Autophagy 2008, 4:669-679, Ozpolat 2007 MCR]. Cells were seeded in 96 wells plates at a density of 1.5 to 3.0×10^3 cells per well in 100 μl of medium. Next day the medium was removed and cells were treated with the drug in 100 μl of medium for 72 hours. Plates were read at 490 nm wavelength in an Elisa plate reader (Kinetic Microplate Reader, Molecular Devices Corporation, Sunnyvale, Calif.).

The test system of data set [1] is MCF-7 cells. The data set can be described thus: Apoptosis / cell death in MCF-7 cells (Annexin V, FACS). The class given is cell-based, human. On the procedure:
Apoptosis was assessed by an Annexin V assay, monitoring PARP and caspase 9 cleavage by Western blot. To provide a comparative assay of apoptosis by Annexin V labeling, tumor cells (1×10^6) treated with CaMK-III siRNA or control siRNA for 24 to 96 hours were harvested and washed with PBS. Cells were resuspended in binding buffer and stained with Annexin V and propidium iodide (PI) according to the manufacturer's protocol (BD Pharmingen Annexin V kit, San Diego, Calif.). Positive cells were detected and quantified by FACS analysis.

In another data set the test system is MDA-MB-231 cells. The data set can be described thus: MTS cell viability/proliferation assay. The class given is cell-based, human. The conditions noted are these: triple negative. From the text: Viable and dead cells were detected by the trypan blue exclusion assay, the viability and/or proliferation of cells a MTS assay was used [Akar U, et al. Autophagy 2008: 4:669-79].
Viable and dead cells were detected by the trypan blue exclusion assay, where viable cells (non-stained) with intact membrane are able to exclude the dye, while dead cells take up the coloring blue agent from the media. To quantitatively assess the viability and/or proliferation of cells a MTS assay was used, which incorporates a redox indicator that changes color in response to metabolic activity. To study cell viability in response to CaMK-III siRNA or control siRNA and plasmid encoding CaMK-III or empty plasmid transfection cells were seeded in 96-well plates at a density of 3×10^3 cells per well in 100 μl of medium. Next day the medium was removed and cells were transfected with siRNA at different concentrations in 100 μl of medium plus transfection mix. […] Plates were read at dual wavelengths (570-595 nm) in an Elisa plate reader (Kinetic Microplate Reader, Molecular Devices Corporation, Sunnyvale, Calif.).
(aka proliferation assay, in this case MTS assay was used. MTS, MTT, XTT all similar assays often used as cell viability/toxicity assay). […] Plates were read at 490 nm wavelength in an Elisa plate reader (Kinetic Microplate Reader, Molecular Devices Corporation, Sunnyvale, Calif.).

For the next data set, the system named is MCF10A. The data set can be described thus: MTS cell viability assay on normal breast epithelium. The class given is cell-based, human. The conditions noted are these: at IC50 to IC90 doses in breast cancer cells (MCF7).
Excerpt: as §1
(Tetrazolium dyes change colour on reduction, which living cells bring about.)

Data set [2] in a line: Toxicity and body weight observation in mice.
The test system of the next data set is 5-HT1B/1D receptor. The data set is described as follows: cAMP levels. The class given is cell-based. (In general: Cyclic AMP is a second messenger, typically raised through Gs and lowered through Gi signalling.)
Another data set has as its system MCF7 cells. The data set can be described thus: MTS cell viability/proliferation assay. The class given is cell-based, human.
Excerpt: (§2) Viable and dead cells were detected by the trypan blue exclusion assay, where viable cells (non-stained) with intact membrane are able to exclude the dye, while dead cells take up the coloring blue agent from the media. To quantitatively assess the viability and/or proliferation of cells a MTS assay was used, which incorporates a redox indicator that changes color in response to metabolic activity. To study cell viability in response to CaMK-III siRNA or control siRNA and plasmid encoding CaMK-III or empty plasmid transfection cells were seeded in 96-well plates at a density of 3×10^3 cells per well in 100 μl of medium. Next day the medium was removed and cells were transfected with siRNA at different concentrations in 100 μl of medium plus transfection mix. Two days after transfection, the medium was removed and replaced by 180 μl of medium plus 20 μl of MTS and the cells were incubated under normal conditions until the color changed. Plates were read at dual wavelengths (570-595 nm) in an Elisa plate reader (Kinetic Microplate Reader, Molecular Devices Corporation, Sunnyvale, Calif.).
as §1

Another data set has as its system MCF7/Dox resistant cells. The data set can be described thus: MTS cell viability/proliferation assay. The class given is cell-based, human.
Excerpt: as §2, §1

The test system of data set [3] is MCF-7 cells. The data set can be described thus: Clonogenic survival assay. The class given is cell-based, human. As to the method:
To study the effect of CaMK-III growth of ER(−) and ER(+) breast cancer cells we performed a clonogenic assay, which is based on the ability of a single cell to grow into a colony (Franken N A, et al. Nat Protoc 2006: 1:2315-9), using MDA-MB-231 and MCF-7 cells, respectively. Cells were transfected with either CaMK-III or control siRNA (50 nM) […] over a period of two weeks.
This assay is an in vitro cell survival assay based on the ability of a single cell to grow into a colony. Briefly, cells (500 cells/well) were transfected with control siRNA or CaMK-III siRNA every week and grown for 2 to 3 weeks. Cells were stained with crystal violet and colonies were counted. Each experiment was repeated twice.
To study the effect of 5-HT1B on the survival and colony formation of breast cancer cells a clonogenic survival assay was performed using various concentrations of […] over a period of two weeks. This assay is based on the ability of a single cell to grow into a colony [Franken N A, et al. Nat Protoc 2006: 1:2315-2319]. […] Cell death and detachment as well as reduced cell number was observed.
This assay is an in vitro cell survival assay based on the ability of a single cell to grow into a colony. […] Cells were stained with crystal violet and colonies cells were counted. […]

Another data set has as its system eEF-2K. The data set can be described thus: Western blot of MCF-7 cells treated with 5-NT. The class given is cell-based, human. On the procedure: FIG. 5. 5-NT down-regulates critical pro-tumorigenic processes in ER(+) MCF-7 […] breast cancer cells. […] 5-NT also induces PARP cleavage and LC3-II. Methods: MCF7 cells were cultured at 37° C. in DMEM supplemented with 5% FBS in a humid incubator with 5% CO2. Following incubation with or without 5-NT cells were lysed according to standard protocols for western blotting. Blots were quantified as in FIG. 3.
FIG. 9. 5-NT down-regulates critical pro-tumorigenic processes in ER(+) MCF-7 breast cancer cells. […] 5-NT also induces PARP cleavage and LC3-II formation. Methods: MCF7 cells were cultured at 37° C. in DMEM supplemented with 5% FBS in a humid incubator with 5% CO2. Following incubation with or without 5-NT, cells were lysed according to standard protocols for western blotting. Blots were quantified as in FIG. 7.
For orientation: In western blotting, separated proteins are transferred to a membrane and probed.

The test system of data set [4] is 5-HT1B or 5-HT1D receptor. The data set can be described thus: Effect on cell proliferation after siRNA knockdown of 5-HT1B or 5-HT1D receptor. The class given is cell-based.

In the case of `CCCCCCCCCOc1ccc2[nH]cc(CCN)c2c1` [5-NT, 5-nonylytryptamine], the “cell survival (O.D.) in a large panel of breast cancer cells” value in the data set with breast cancer cells is recorded as “effective against almost all breast cancer cell lines”. Further, the induction of apoptosis result in the data set on MCF-7 cells [1] was “induced robust apoptosis”. For the same molecule, in the data set with MCF-7 cells [1] (with a low dose of doxorubicin), the “cell death in combination with doxorubicin” value is on record as “synergistic cell death”. Besides, the inhibition of proliferation result in the data set on MDA-MB-231 cells, in the data set on MCF7 cells (ER(+)) and in the data set on MCF7/Dox resistant cells was “inhibits proliferation” in each case. The “toxicity against normal breast epithelium” value in the data set on MCF10A is recorded as “not toxic”. For the same molecule, the “toxicity (weight loss)” value in data set [2] (high dose of 50 mg/kg) was “without displaying any toxicity”. Also, in data set [2] (liposome incorporated, i.v., 10 mg/kg, at least 15 doses, 4 weeks), the body weight result is recorded as “did not lose any weight”. In the data set on 5-HT1B/1D receptor, the cAMP levels entry is given as “decrease cAMP levels”. Moreover, the “selectivity for tumorigenic MCF-7 compared to non-tumorigenic MCF-10A” value in the data set on MCF7 cells was “much higher selectivity”. Also, in the data set with MCF-7 cells [3], the colony formation result is reported as “inhibits colony formation”. Also, the “time to down-regulation of ERK/cyclin-D, Akt/mTor, IGF1-R, Src/Fak and eEF-2K” value in the data set with eEF-2K was not above 4 h. The “effect of compound after knockdown of 5-HT1B or 5-HT1D receptor” value in data set [4] is listed as “blunts the effect”.

These data come from patent US9073851B2, “Compositions and methods for treating cancer” (Board of Regents, The University of Texas System, priority 2011, dated 2015).
